According to patent US20210299064A1, “METHOD OF TREATING PATIENTS WITH LENNOX-GASTAUT SYNDROME” (ZOGENIX INTERNATIONAL LIMITED, priority 2020, published 2021):
Where a name gives a salt, the structure may show the parent alone. Read-outs that look alike come from different tables or passages of the source.

Legend:
[1] = test system: children with refractory epilepsy; conditions: 0.5 to 1 mg/kg/day; cited from earlier work
[2] = test system: child suffering pattern sensitivity-induced seizures; conditions: one child, resistant to anticonvulsive treatment; cited from earlier work
[3] = test system: self-induced photosensitive seizures; conditions: four cases; cited from earlier work
[4] = test system: children and adults with Lennox-Gastaut syndrome (LGS); test: Same trial: Clinical Global Impression-Improvement (CGI-I) rating by the Principal Investigator; type: in vivo, human; conditions: 0.7 mg/kg/day; placebo 6.3%; p 0.0007
Description: The diagnosing can also involve a clinician's impression of symptoms. As used herein, the term “clinician” includes not only medical and psychological professions such as physicians, psychologists, psychiatrists, and nurses, but also non-professionals who observe the patient, such as a family member who resides with the patient. In some cases, the clinician is a medical or psychological professional. […] Instead, the “impression of symptoms” includes, for example, the clinician's subjective assessment of whether the overall condition of the patient has improved, worsened, or remained constant. In some cases the clinician's impression of symptoms is collected using a Clinical Global Impression (CGI) rating scale, which can include the section about severity of illness (CGI-S), global improvement (CGI-I), and efficacy index (CGI-E). […] By comparing the numerical responses over time, an assessment of the effect of the administering can be determined.
Change in seizure frequency was assessed as the drops between baseline and the combined Titration and Maintenance Periods (T+M). Also assessed was the proportion of subjects who achieve a ≥50% reduction from baseline in the frequency of seizures that result in drops. Also assessed was changes in the Clinical Global Impression—Improvement rating, as assessed by the Principal Investigator. […]

[5] = test system: children and adults with Lennox-Gastaut syndrome (LGS); test: Same trial: safety (adverse events, ECG, ECHO); type: in vivo, human
[6] = test system: children and adults with Lennox-Gastaut syndrome (LGS); test: Randomized, double-blind, placebo-controlled trial of adjunctive fenfluramine oral solution: seizure frequency from caregiver diary; type: in vivo, human; conditions: for median reduction in monthly drop seizures: 2 week titration plus 12 week maintenance, placebo 7.8% (7.6% elsewhere in the source); for reduction from baseline of generalized tonic-clonic (GTC) seizures: placebo negative 3.7%, p less than 0.001; for reduction from baseline of tonic-atonic seizures: placebo 6.8%, p 0.0455; for proportion of subjects with a 25% or more reduction in monthly drop seizures: titration plus maintenance (week 0-14), placebo 31%, p 0.007
Description: A randomized, double-blind, placebo-controlled trial was conducted to assess the effect of administering fenfluramine hydrochloride as an adjunctive therapy as an oral solution to children and adults with Lennox-Gastaut syndrome (LGS). The study assessed the effect of such administration on seizures experienced by the subjects.
The fenfluramine hydrochloride was supplied as an oral solution in concentrations of 1.25, 2.5, and 5 mg/mL. Subjects were randomized to receive 1 of 2 doses of fenfluramine hydrochloride (0.2 mg/kg/day, 0.8 mg/kg/day; maximum dose: 30 mg/day) or placebo. Study medication were administered twice a day (BID) in equally divided doses. (Note that subjects taking concomitant stiripentol [STP] were randomized to 0.5 mg/kg/day, maximum dose 20 mg/day, or equivalent volume of placebo. Subjects randomized to 0.5 mg/kg/day were included in analyses with the subjects randomized to 0.8 mg/kg/day not taking STP.)
Seizures that result in a drop are defined as seizures involving the entire body, trunk, or head that led to a fall, injury, slumping in a chair, or the subject's head hitting a surface or that could have led to a fall or injury, depending on the patient's position at the time of the seizure.
The cohort included 263 randomized subjects from the United States, Canada, Europe, and Australia. 87 were randomized into 0.7 mg/kg/day of fenfluramine hydrochloride, 89 were randomized into 0.2 mg/kg/day of fenfluramine hydrochloride, and 87 were randomized into a placebo.
The administration was conducted for 20 weeks. There was a 4-week baseline, a 2-week titration, a 12-week maintenance, and a 2-week taper or transition period.
The 4-week Baseline Period consisted of the establishment of initial eligibility during a screening visit to include an assessment of cardiac parameters (ECG and ECHO), followed by an observation period where subjects were assessed for baseline seizure frequency based on recordings of daily seizure activity entered into a diary. Upon completion of the Baseline Period, subjects who qualified for the study were randomized (1:1:1) in a double-blind manner to receive 1 of 2 doses of fenfluramine hydrochloride (0.2 mg/kg/day, […]; maximum dose: 30 mg/day [or 0.5 mg/kg/day, maximum 20 mg/day, for subjects taking concomitant STP]) or placebo. Randomization was stratified by weight (<37.5 kilograms [kg], ≥37.5 kg) to ensure balance across treatment arms, and at least 25% of subjects will be in each weight group. All subjects were titrated to their blinded randomized dose over a 2-week Titration Period. Following titration, subjects continued treatment at their randomly assigned dose over a 12-week Maintenance Period. Total treatment time from the beginning of the Titration Period through the end of the Maintenance Period is 14 weeks. Subjects had ECG and ECHO assessments at weeks 6 and 14 during the Maintenance Period. At the end of the Maintenance Period (or early discontinuation), all subjects underwent a blinded 2-week taper or transition period (Post-Dosing Follow-Up) depending on whether they exit the study or are enrolled in Part 2, the long-term open-label extension, respectively.
Change in seizure frequency was assessed as the drops between baseline and the combined Titration and Maintenance Periods (T+M). Also assessed was the proportion of subjects who achieve a ≥50% reduction from baseline in the frequency of seizures that result in drops. Also assessed was changes in the Clinical Global Impression—Improvement rating, as assessed by the Principal Investigator.
Primary Efficacy Analysis: The primary efficacy endpoint for Part 1 is the percent change in frequency of seizures that result in drops (DSF: drop seizure frequency) per 28 days between the T+M and Baseline periods in Cohort A. The DSF will be calculated from all available data collected during the Baseline and treatment periods without imputation. […]

[7] = test system: LGS patients; conditions: cited from earlier work; for reduction in seizures associated with drops: 20 mg/kg/day
[8] = 0.7 mg/kg/day, listed as Fenfluramine

CCNC(C)Cc1cccc(C(F)(F)F)c1 (racemic) [fenfluramine, (RS)—N-ethyl-1-[3-(trifluoromethyl)phenyl]propan-2-amine]
effect on number of seizures [1]: reduction in the number of seizures | effect on self-induced pattern sensitivity-induced seizures [2]: successfully terminated these self-induced seizures | response of self-induced photosensitive seizures [3]: responded to treatment | proportion of patients much or very much improved, CGI-I Investigator Rating [4]: 26.3% | subjects with at least one serious treatment emergent adverse event (SAE) ([5]; 0.7 mg/kg/day, placebo 4.6%): 11.7% | tolerability ([5]; both doses, 14 weeks of treatment): generally well tolerated | cases of valvular heart disease or pulmonary arterial hypertension ([5]; both doses, ECHO monitoring): No cases of valvular heart disease or pulmonary arterial hypertension were observed | median reduction in monthly drop seizures ([6]; 0.2 mg/kg/day, p 0.0915): 14.2% | reduction from baseline of generalized tonic-clonic (GTC) seizures ([6]; 0.2 mg/kg/day): 58.2% | reduction from baseline of generalized tonic-clonic (GTC) seizures ([6]; 0.2 mg/kg/day, listed as Fenfluramine): 58% | median reduction in monthly drop seizures ([6]; 0.7 mg/kg/day, p 0.0012): 26.5% | Hodges-Lehmann EMD (estimated median difference) from placebo in frequency of seizures associated with a drop ([6]; 0.7 mg/kg/day, p 0.0013): 19.9% | reduction from baseline of tonic-atonic seizures ([6]; 0.7 mg/kg/day): 46.7% | reduction from baseline of tonic-atonic seizures [6, 8]: 47% | reduction from baseline of tonic seizures ([6]; 0.7 mg/kg/day, placebo 13.3%, p 0.0601): 31.3% | reduction from baseline of generalized tonic-clonic (GTC) seizures ([6]; 0.7 mg/kg/day): 45.7% | reduction from baseline of generalized tonic-clonic (GTC) seizures [6, 8]: 46% | proportion of subjects with a 25% or more reduction in monthly drop seizures ([6]; 0.7 mg/kg/day): 51.7%

O=C(c1cccnc1-c1ccncc1)N1CCC(O)(Cc2ccccc2)CC1 [Soticlestat]
reduction in drop seizures ([7]; Takeda Pharmaceuticals 2020, not statistically significant): 14.8%

C=C(C)[C@@H]1CCC(C)=C[C@H]1c1c(O)cc(CCCCC)cc1O [cannabidiol]
reduction in seizures associated with drops ([7]; Devinksy 2018, p 0.005): 21.6% | reduction in seizures associated with drops ([7]; Thiele 2018, p 0.0135): 17.2%

CCNC(C)Cc1cccc(C(F)(F)F)c1 (stereo not shown) [fenfluramine HCl, fenfluramine hydrochloride]
proportion of patients much or very much improved, CGI-I Investigator Rating [4]: 26.3% | median reduction in monthly drop seizures ([6]; 0.2 mg/kg/day, p 0.0915): 13.2% | median reduction in monthly drop seizures ([6]; 0.7 mg/kg/day, p 0.0012): 26.5% | proportion of subjects with a 25% or more reduction in monthly drop seizures ([6]; 0.7 mg/kg/day): 51.7%
